Measured values taken from patent US20240327359A1, “3-ISOXAZOLIDINONE COMPOUND, PREPARATION METHOD, HERBICIDAL COMPOSITION AND APPLICATION THEREOF” (QINGDAO KINGAGROOT CHEMICAL COMPOUND CO., LTD., priority 2021, published 2024).

Legend:
Type in all cases: in vivo
[1] = tested on: Echinochloa crusgalli; assay: Activity test of the compositions, post-emergence treatment by foliage spray; conditions: foliage (F)
Method: (§1) The desired active ingredient B was purchased from a reagent company or synthesized by a known method. The technical materials were all dissolved in acetone and diluted with an aqueous solution containing 0.10% emulsifier Tween-80 which were to be used immediately after dilution.
(§2) Weeds were cultivated by a pot culture method. […] Weed seeds with plump and uniform grains were selected, soaked in lukewarm water at 25° C. for 6 hours, and germinated in a 28° C. biochemical incubator (in darkness). The weed seeds that had just germinated were evenly placed on the surface of the soil and then covered with 0.5-1 cm soil according to the sizes of seeds.
(§3) The culture was carried out in a controllable sunlight greenhouse at 20 to 30° C., in natural light, and with relative humidity of 57% to 72%.
(§4) Each treatment was repeated 4 times. Four pots with 20 weed seeds per pot were treated each time.
(§5) The agents were used for only once in total in the experiment. In the stage of 1.5-2 leaves, the weeds were thinned out to maintain 10 weeds per pot. Ten weeds were kept in each treatment, then continued to be cultured until Echinochloa crus-galli var. zelayensis reached the stage of 2-3 leaves, Cirsium setosum reached the stage of 5-6 leaves, Galium aparine reached the stage of 3-4 whorl leaves, Amaranthus retroflexus reached the stage of 3-5 leaves, Echinochloa crusgalli, Lolium multiflorum and Digitaria sanguinalis reached the stage of 3 leaves with one leaf not fully expanding for further treatment.
(§6) The well-cultured test materials were evenly placed on a platform with an area of 0.5 m^2, and solution of agents was sprayed on the stems and leaves thereof by the 3WP-2000-type walking spray tower at a dosage of 450 kg/ha and at a spray pressure of 0.3 MPa. After all the solution was sprayed, the valve was closed. After 30 seconds, the door of the spray tower was opened, and the nutritional bowl was taken out. Then the valve was opened, and the spray tube was cleaned by spraying 50 ml of water. After the treatment, the weeds were routinely cultured in a greenhouse.
(§7) A method for investigating absolute numbers was employed. Whole seedlings of survival weeds were cut off with a blade along the soil surface, and the fresh weight of the weeds was weighed with an analytical balance. For dead weeds, the fresh weight thereof was zero.
(§8) The investigation was performed 21 days after the treatment for only once in total.

[2] = tested on: Lolium multiflorum; assay: as above; conditions: foliage (F)
Method: as §1, §2, §3, §4, §5, §6, §7, §8

[3] = tested on: Galium aparine; assay: as above; conditions: foliage (F)
Method: as §1, §2, §4, §5, §6, §7, §8

[4] = tested on: Amaranthus retroflexus; assay: as above; conditions: foliage (F)
Method: as §1, §2, §3, §4, §5, §6, §7, §8

[5] = tested on: Digitaria sanguinalis; assay: as above
Method: as §1, §2, §3, §4, §5, §6, §7, §8

[6] = tested on: Echinochloa crus-galli var. zelayensis; assay: as above; conditions: Echinochloa crusgalli var. zelayensis, foliage (F)
Method: as §1, §2, §3, §4, §5, §6, §7, §8

[7] = tested on: weeds; assay: Activity test of the compositions, soil sealing treatment; conditions: soil (S)
Method: as §1
Weeds are cultivated in a controllable sunlight greenhouse at 20 to 30° C., in natural light, and with relative humidity of 57% to 72%. […] The test soil was filled quantitatively to ¾ of the pots and then watered from the bottom of the pots to completely wet the soil to saturation. The test weed seeds were accelerated to just germinate, and then evenly and quantitatively sowed on the surface, then covered with 0.5-1 cm soil according to the seed size, and ready for use 72 hours after sowing.
as §4
as §6, with “well-sowed” for “well-cultured”, “soil” for “stems and leaves thereof”, “water.” for “water. After the treatment, the weeds were routinely cultured in a greenhouse.”
as §7, §8

`CCC[S@@+]([O-])c1c(C(F)(F)F)ccc(C(=O)Nc2nnc(C)o2)c1F` was tested. Which “Control effect (%) of B applied alone (B)” value (“Control effect (%)” for short) ([1]; B 1.5 g a.i./mu) did it give?
The value was 33.8%.

What about the “Control effect (%)” value ([1]; B 3 g a.i./mu) of the same compound?
Its value is 49.7%.

With `C[C@@H](Oc1nc(F)c(Cl)c(N)c1Cl)C(=O)OCC1CCCO1` (some centres unmarked) as the compound, how does the “Control effect (%)” value ([2]; B 8 g a.i./mu) read?
Its value is 30.7%.

And the “Control effect (%)” value ([2]; B 16 g a.i./mu)?
The value was 44.1%.

What does the source list for `Cc1cc(Cl)ccc1OCC(=O)O` [MCPA]?
Control effect (%) of B applied alone (B) ([3]; B 20 g a.i./mu): 33.1%; Control effect (%) of B applied alone (B) ([3]; B 40 g a.i./mu): 46.7%

Which results are given for `CC(C)c1nn(C(=O)NC(C)(C)C)c(=O)n1N` [amicarbazone]?
Control effect (%) of B applied alone (B) ([1]; B 4 g a.i./mu): 29.8%; Control effect (%) of B applied alone (B) ([1]; B 8 g a.i./mu): 37.2%

`Cc1nn(C)cc1C(=O)Oc1c(C(=O)c2ccc(C(F)(F)F)cc2S(C)(=O)=O)c(C)nn1C` [bipyrazone] was tested. Which “Control effect (%)” value ([3]; B 0.75 g a.i./mu) did it give?
Its value is 33.6%.

And the “Control effect (%)” value ([3]; B 1.5 g a.i./mu)?
The value was 46.2%.

For `COc1cc(OC)nc(Oc2cccc(Oc3nc(OC)cc(OC)n3)c2C(=O)O)n1` [bispyribac], which “Control effect (%)” value ([1]; B 0.6 g a.i./mu) is on record?
Its value is 30.7%.

What about the “Control effect (%)” value ([1]; B 1.2 g a.i./mu) of the same compound?
Its value is 42. %.

For `CCCCCCCC(=O)Oc1c(Br)cc(C#N)cc1Br` [bromoxynil octanoate], which “Control effect (%)” value ([4]; B 6 g a.i./mu) is on record?
The value was 38.2%.

And the “Control effect (%)” value ([4]; B 12 g a.i./mu)?
Its value is 49.5%.

What does the source list for `Cn1[nH]c(C2CC2)c(C(=O)c2ccc(C(F)(F)F)c(N3CCCCC3=O)c2Cl)c1=O` [cypyrafluone]?
Control effect (%) of B applied alone (B) ([2]; B 3 g a.i./mu): 26.7%; Control effect (%) of B applied alone (B) ([2]; B 6 g a.i./mu): 38.9%

With `COc1c(Cl)ccc(Cl)c1C(=O)O` [dicamba] as the compound, how does the “Control effect (%)” value ([3]; B 4 g a.i./mu) read?
Its value is 28.6%.

What about the “Control effect (%)” value ([3]; B 8 g a.i./mu) of the same compound?
The value was 39.7%.

Which “Control effect (%)” value ([1]; B 1.5 g a.i./mu) does the source give for `CCn1ncc(C(=O)c2ccc(S(C)(=O)=O)c(COCC(F)(F)F)c2Cl)c1OC(=O)c1cn(C)nc1C` [fenpyrazone] here?
Its value is 32.6%.

What about the “Control effect (%)” value ([1]; B 3 g a.i./mu) of the same compound?
The value was 50.7%.

For `COc1ncc(F)c2nc(S(=O)(=O)Nc3c(F)cccc3F)nn12` [florasulam], which “Control effect (%)” value ([3]; B 0.1 g a.i./mu) is on record?
Its value is 31.5%.

What about the “Control effect (%)” value ([3]; B 0.2 g a.i./mu) of the same compound?
Its value is 44.1%.

With `COc1c(Cl)ccc(-c2nc(C(=O)O)c(Cl)c(N)c2F)c1F` [florpyrauxifen] as the compound, how does the “Control effect (%)” value ([1]; B 0.5 g a.i./mu) read?
The value was 22.5%.

What about the “Control effect (%)” value ([1]; B 1 g a.i./mu) of the same compound?
The value was 41.3%.

Which “Control effect (%)” value ([3]; B 4 g a.i./mu) does the source give for `Nc1c(Cl)c(F)nc(OCC(=O)O)c1Cl` [fluroxypyr] here?
The value was 29.4%.

What about the “Control effect (%)” value ([3]; B 8 g a.i./mu) of the same compound?
The value was 46.1%.

Which results are given for `CS(=O)(=O)NC(=O)c1cc(Oc2ccc(C(F)(F)F)cc2Cl)ccc1[N+](=O)[O-]` [fomesafen]?
Control effect (%) of B applied alone (B) ([4]; B 4 g a.i./mu): 38.1%; Control effect (%) of B applied alone (B) ([4]; B 8 g a.i./mu): 47.5%

`COc1c(Cl)ccc(-c2cc(N)c(Cl)c(C(=O)O)n2)c1F` [halauxifen] was tested. Which “Control effect (%)” value ([3]; B 0.2 g a.i./mu) did it give?
Its value is 26.4%.

What about the “Control effect (%)” value ([3]; B 0.4 g a.i./mu) of the same compound?
Its value is 37.2%.

With `Cc1ccc2c(c1)[C@H](Nc1nc(N)nc(C(C)F)n1)[C@@H](C)C2` (some centres unmarked) [indaziflam] as the compound, how does the “Control effect (%)” value ([5]; foliage treatment (F), B at 0.8 g a.i./mu, 21 days) read?
The value was 36.4%.

What about the “Control effect (%)” value ([5]; foliage treatment (F), B at 1.6 g a.i./mu, 21 days) of the same compound?
The value was 52.1%.

For `COC(=O)c1ccc(CNS(C)(=O)=O)cc1S(=O)(=O)NC(=O)Nc1nc(OC)cc(OC)n1` [mesosulfuron-methyl], which “Control effect (%)” value ([2]; B 0.25 g a.i./mu) is on record?
Its value is 31.5%.

And the “Control effect (%)” value ([2]; B 0.5 g a.i./mu)?
The value was 44.3%.

`CS(=O)(=O)c1ccc(C(=O)C2C(=O)CCCC2=O)c([N+](=O)[O-])c1` [mesotrione] was tested. Which “Control effect (%)” value ([5]; foliage (F), B 2.5 g a.i./mu) did it give?
Its value is 38.6%.

What about the “Control effect (%)” value ([5]; foliage (F), B 5 g a.i./mu) of the same compound?
Its value is 52.1%.

How did the “Control effect (%)” value ([5]; foliage (F), B 1 g a.i./mu) turn out when `COc1cc(OC)nc(NC(=O)NS(=O)(=O)c2ncccc2C(=O)N(C)C)n1` [nicosulfuron] was run?
The value was 29.7%.

And the “Control effect (%)” value ([5]; foliage (F), B 2 g a.i./mu)?
Its value is 47.6%.

With `COc1cnc(OC)n2nc(NS(=O)(=O)c3c(OCC(F)F)cccc3C(F)(F)F)nc12` [penoxsulam] as the compound, how does the “Control effect (%)” value ([1]; B 0.5 g a.i./mu) read?
Its value is 52.7%.

What about the “Control effect (%)” value ([1]; B 1 g a.i./mu) of the same compound?
Its value is 61.7%.

For `CCC(=O)Nc1ccc(Cl)c(Cl)c1` [propanil], which “Control effect (%)” value ([6]; B 16 g a.i./mu) is on record?
The value was 16.8%.

And the “Control effect (%)” value ([6]; B 32 g a.i./mu)?
The value was 31.2%.

For `CCCN(CCC)C(=O)SCc1ccccc1` [prosulfocarb], which “Control effect (%)” value ([3]; B 50 g a.i./mu) is on record?
The value was 40.5%.

What about the “Control effect (%)” value ([3]; B 100 g a.i./mu) of the same compound?
The value was 56.1%.

Which “Control effect (%)” value ([6]; B 4 g a.i./mu) does the source give for `O=C(O)c1c(Cl)ccc2cc(Cl)cnc12` [quinclorac] here?
The value was 22.5%.

What about the “Control effect (%)” value ([6]; B 8 g a.i./mu) of the same compound?
Its value is 41.4%.

What does the source list for `COC(=O)CCNC(=O)C(C)Sc1cc(-n2c(=O)cc(C(F)(F)F)n(C)c2=O)c(F)cc1Cl` (centres unmarked) [tiafenacil]?
Control effect (%) of B applied alone (B) ([1]; B 0.5 g a.i./mu): 33.4%; Control effect (%) of B applied alone (B) ([1]; B 1 g a.i./mu): 45.9%

How did the “Control effect (%)” value ([7]; Lolium multiflorum, B 2 g a.i./mu) turn out when `C#CCN1C(=O)C(F)(F)Oc2cc(F)c(-n3c(=O)n(C)c(=S)n(C)c3=O)cc21` [trifludimoxazin] was run?
Its value is 31.5%.

And the “Control effect (%)” value ([7]; Lolium multiflorum, B 4 g a.i./mu)?
The value was 42.6%.

`Cc1cc(C)n(Cc2c(S(C)(=O)=O)ccc(C(=O)c3c(C)nn(C)c3OC(=O)c3cn(C)nc3C)c2Cl)n1` [tripyrasulfone] was tested. Which “Control effect (%)” value ([1]; B 4 g a.i./mu) did it give?
The value was 26.7%.

And the “Control effect (%)” value ([1]; B 8 g a.i./mu)?
The value was 46.1%.

How did the “Control effect (%)” value ([7]; Lolium multiflorum, B 12 g a.i./mu) turn out when S-metolachlor was run?
Its value is 32.1%.

What about the “Control effect (%)” value ([7]; Lolium multiflorum, B 24 g a.i./mu) of the same compound?
The value was 53.6%.

What does the source list for fluridone?
Control effect (%) of B applied alone (B) ([7]; Veronica didyma, B 1 g a.i./mu): 37.2%; Control effect (%) of B applied alone (B) ([7]; Veronica didyma, B 2 g a.i./mu): 50.4%
